# Laboratory results as given in patent US8822460B2, “Fused cyclopentyl antagonists of CCR2” (Janssen Pharmaceutica, NV, priority 2012, dated 2014).
# “And” between values parts separate entries of the source, which are not always exact repeats. Equal entries are not always repeated. Structures can show the parent of a compound that is named as a salt.
# Legend:
# [1] = Moisture sorption/desorption analysis; assay type: physicochemical; settings: for total hygroscopic weight increase (uptake): up to 90% RH
# Method: The crystalline phosphate, sulfate and maleate salts of the compound of formula (I-S) were additional tested in DSC, TGA and moisture sorption/desorption. […] The moisture sorption analysis was performed using Hiden Isochema system Model IGAsorp. The sample (˜5 mg) was run in a stainless-steel mesh crucible. […] The moisture profile consisted of 2 cycles of vapor adsorption/desorption.
# [2] = molecular target: CCR2 (Homo sapiens (Human), UniProt P41597); assay: MCP-1 Receptor Binding Assay in THP-1 Cells; settings: stated as 'believed to have', approximate ('about')
# Method: Human monocytic cell line THP-1 cells were obtained from American Type Culture Collection (Manassas, Va., USA). […] The cell density was maintained […].
# 1 μM cold MCP-1 was used for nonspecific binding.
# [3] = Solution solubility; settings: thermodynamic from solid
# [4] = test system: high-fat diet induced obese mice; assay: High-Fat Diet Induced Obesity and Insulin Resistance in Mice
# [5] = test system: hCCR2KI mice; assay: animal or person; assay type: in vivo, mouse
# Sequence of CCR2 (P41597 whole entry): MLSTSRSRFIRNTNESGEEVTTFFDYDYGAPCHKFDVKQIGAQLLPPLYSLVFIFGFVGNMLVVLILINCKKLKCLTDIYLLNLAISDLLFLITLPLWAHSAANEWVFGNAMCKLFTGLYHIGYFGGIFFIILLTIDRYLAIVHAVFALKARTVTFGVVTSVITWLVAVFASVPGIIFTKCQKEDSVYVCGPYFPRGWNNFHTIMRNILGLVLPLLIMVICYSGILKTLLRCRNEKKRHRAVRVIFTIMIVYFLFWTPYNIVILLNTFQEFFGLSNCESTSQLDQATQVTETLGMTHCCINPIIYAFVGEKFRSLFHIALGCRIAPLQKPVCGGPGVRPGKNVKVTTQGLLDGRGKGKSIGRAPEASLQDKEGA
compound,measurement,setting,value
"CO[C@@H]1COCC[C@@H]1N[C@@H]1C[C@H]2OCC[C@@]2(C(=O)N2CCc3ncc(C(F)(F)F)cc3C2)C1 [phosphate salt, ((3aS,5S,6aR)-5-(((3S,4S)-3-methoxytetrahydro-2H-pyran-4-yl)amino)hexahydro-2H-cyclopenta[b]furan-3a-yl)(3-(trifluoromethyl)-7,8-dihydro-1,6-naphthyridin-6(5H)-yl)methanone]",hygroscopic weight increase,[1]; up to 60% RH,3.3%
same,total hygroscopic weight increase (uptake),[1],69.4%
"O=C(N1COc2ccc(C(F)(F)F)cc2C1)[C@@]12CCO[C@@H]1C[C@@H](N1CCC(c3ccccc3)CC1)C2 [Example 38, ((3aS,5S,6aR)-5-(4-phenylpiperidin-1-yl)hexahydro-2H-cyclopenta[b]furan-3a-yl)(6-(trifluoromethyl)-2H-benzo[e][1,3]oxazin-3(4H)-yl)methanone]",IC50,[2],100 to 200 nM
"CO[C@@H]1COCC[C@@H]1N[C@@H]1C[C@H]2OCC[C@@]2(C(=O)N2CCc3ncc(C(F)(F)F)cc3C2)C1 [maleate salt, ((3aS,5S,6aR)-5-(((3S,4S)-3-methoxytetrahydro-2H-pyran-4-yl)amino)hexahydro-2H-cyclopenta[b]furan-3a-yl)(3-(trifluoromethyl)-7,8-dihydro-1,6-naphthyridin-6(5H)-yl)methanone]",hygroscopic weight increase,[1]; up to 70% RH,18.3%
same,total hygroscopic weight increase (uptake),[1],79.9%
"CO[C@@H]1COCC[C@@H]1N[C@@H]1C[C@H]2OCC[C@@]2(C(=O)N2CCN(c3cccc(C(F)(F)F)n3)CC2)C1 [Example 24, ((3 aS,5S,6aR)-5-(((3S,4S)-3-methoxytetrahydro-2H-pyran-4-yl)amino)hexahydro-2H-cyclopenta[b]furan-3a-yl)(4-(6-(trifluoromethyl)pyridin-2-yl)piperazin-1-yl)methanone]",IC50,[2],> 200 nM
"COC1COCCC1N[C@@H]1C[C@H]2OC(C3CCCCC3)C[C@@]2(C(=O)N2CCc3ncc(C(F)(F)F)cc3C2)C1 (stereo partly drawn) [Example 15, ((3aS,5S,6aR)-2-cyclohexyl-5-((3-methoxytetrahydro-2H-pyran-4-yl)amino)hexahydro-2H-cyclopenta[b]furan-3a-yl)(3-(trifluoromethyl)-7,8-dihydro-1,6-naphthyridin-6(5H)-yl)methanone]",IC50,[2],< 50 nM
"COCCOCCOCCOCCCN([C@@H]1C[C@H]2OCC[C@@]2(C(=O)N2CCc3ncc(C(F)(F)F)cc3C2)C1)[C@H]1CCOC[C@H]1OC [Example 42, ((3aS,5S,6aR)-5-(((3S,4S)-3-methoxytetrahydro-2H-pyran-4-yl)(2,5,8,11-tetraoxatetradecan-14-yl)amino)hexahydro-2H-cyclopenta[b]furan-3a-yl)(3-(trifluoromethyl)-7,8-dihydro-1,6-naphthyridin-6(5H)-yl)methanone]",IC50,[2],> 200 nM
"COC1COCCC1N[C@@H]1C[C@H]2OC(CC(C)C)C[C@@]2(C(=O)N2CCc3ncc(C(F)(F)F)cc3C2)C1 (stereo partly drawn) [Example 14, ((3aS,5S,6aR)-2-isobutyl-5-((3-methoxytetrahydro-2H-pyran-4-yl)amino)hexahydro-2H-cyclopenta[b]furan-3a-yl)(3-(trifluoromethyl)-7,8-dihydro-1,6-naphthyridin-6(5H)-yl)methanone]",IC50,[2],50 to 100 nM
"CN(C)C(=O)c1cccc(C2CCN([C@@H]3C[C@H]4OCC[C@@]4(C(=O)N4COc5ccc(C(F)(F)F)cc5C4)C3)CC2)c1 [Example 39, N,N-dimethyl-3-(1-((3aS,5S,6aR)-3a-(6-(trifluoromethyl)-3,4-dihydro-2H-benzo[e][1,3]oxazine-3-carbonyl)hexahydro-2H-cyclopenta[b]furan-5-yl)piperidin-4-yl)benzamide]",IC50,[2],< 50 nM
"CO[C@@H]1COCC[C@@H]1N[C@@H]1C[C@H]2OCC[C@@]2(C(=O)N2CCc3ncc(C(F)(F)F)cc3C2)C1.O=C(O)CCC(=O)O [((3aS,5S,6aR)-5-(((3S,4S)-3-methoxytetrahydro-2H-pyran-4-yl)amino)hexahydro-2H-cyclopenta[b]furan-3a-yl)(3-(trifluoromethyl)-7,8-dihydro-1,6-naphthyridin-6(5H)-yl)methanone]",solubility,"[3]; 0.1N NaOH, aqueous buffer",> 100 mg/mL
same,solubility,"[3]; 0.5% methocel, aqueous with cosolvent or surfactant or cyclodextrin",> 100 mg/mL
same,solubility,"[3]; 20% HpbCD, aqueous with cosolvent or surfactant or cyclodextrin",> 100 mg/mL
same,solubility,"[3]; borate buffer, pH 8, aqueous buffer",> 100 mg/mL
same,solubility,"[3]; borate buffer, pH 10, aqueous buffer",> 100 mg/mL
same,solubility,"[3]; citrate buffer, pH 2, aqueous buffer",> 100 mg/mL
same,solubility,"[3]; citrate buffer, pH 4, aqueous buffer",> 100 mg/mL
same,solubility,"[3]; citrate buffer, pH 6, aqueous buffer",> 100 mg/mL
same,solubility,[3]; simulated gastric fluid,> 100 mg/mL
same,solubility,"[3]; simulated intestinal fluid, fassgf or other biorelevant",> 100 mg/mL
same,solubility,[3]; water,> 50 mg/mL
same,moisture retained at the end of the desorption phase,"[1]; multiple sorption/desorption cycles, 25° C.",about 2.7%
same,hygroscopic weight increase,[1]; up to 70% RH,3.8%
same,total hygroscopic weight increase (uptake),[1],70%
"COc1cccc(C2CCN([C@@H]3C[C@H]4OCC[C@@]4(C(=O)N4CCc5ncc(C(F)(F)F)cc5C4)C3)CC2)c1 [Example 33, ((3aS,5S,6aR)-5-(4-(3-methoxyphenyl)piperidin-1-yl)hexahydro-2H-cyclopenta[b]furan-3a-yl)(3-(trifluoromethyl)-7,8-dihydro-1,6-naphthyridin-6(5H)-yl)methanone]",IC50,[2],< 50 nM
"CO[C@@H]1COCC[C@@H]1N[C@@H]1C[C@H]2OCC[C@@]2(C(=O)N2CCc3ncc(C(F)(F)F)cc3C2)C1 [sulfate salt, ((3aS,5S,6aR)-5-(((3S,4S)-3-methoxytetrahydro-2H-pyran-4-yl)amino)hexahydro-2H-cyclopenta[b]furan-3a-yl)(3-(trifluoromethyl)-7,8-dihydro-1,6-naphthyridin-6(5H)-yl)methanone]",hygroscopic weight increase,[1]; up to 60% RH,1.6%
same,total hygroscopic weight increase (uptake),[1],26.5%
"CO[C@@H]1COCC[C@@H]1N[C@@H]1C[C@H]2OCC[C@@]2(C(=O)N2CCc3ncc(C(F)(F)F)cc3C2)C1.O=C(O)CCC(=O)O [Example 30, ((3aS,5S,6aR)-5-((3S,4S)-3-methoxytetrahydro-2H-pyran-4-ylamino)hexahydro-2H-cyclopenta[b]furan-3a-yl)(3-(trifluoromethyl)-7,8-dihydro-1,6-naphthyridin-6(5H)-yl)methanone succinate]",reduction of high fat-diet induced body weight,"[4]; 1 mg/kg p.o. bid, after 32-days treatment (p>0.05)",4.94%
same,reduction of high fat-diet induced body weight,"[4]; 3 mg/kg p.o. bid, after 32-days treatment (p<0.01)",10.94%
same,reduction of high fat-diet induced body weight,"[4]; 10 mg/kg p.o. bid, after 32-days treatment (p<0.01)",15.7%
same,EC50,"[5]; Mus musculus, 0.5 h, read-out: cmax EC50 in plasma",97 nM
same,inhibition of thioglycollate induced cellular infiltrate,"[5]; mouse, in vivo, succinate",51% and 67% and 95%
"CO[C@@H]1COCC[C@@H]1N[C@@H]1C[C@H]2OCC[C@@]2(C(=O)N2CCN(c3ccnc(C(F)(F)F)n3)CC2)C1 [Example 28, ((3aS,5S,6aR)-5-(((3S,4S)-3-methoxytetrahydro-2H-pyran-4-yl)amino)hexahydro-2H-cyclopenta[b]furan-3a-yl)(4-(2-(trifluoromethyl)pyrimidin-4-yl)piperazin-1-yl)methanone]",IC50,[2],> 200 nM
"COCCN([C@@H]1C[C@H]2OCC[C@@]2(C(=O)N2CCc3ncc(C(F)(F)F)cc3C2)C1)[C@H]1CCOC[C@H]1OC [Example 41, ((3aS,5S,6aR)-5-((2-methoxyethyl)((3S,4S)-3-methoxytetrahydro-2H-pyran-4-yl)amino)hexahydro-2H-cyclopenta[b]furan-3a-yl)(3-(trifluoromethyl)-7,8-dihydro-1,6-naphthyridin-6(5H)-yl)methanone]",IC50,[2],> 200 nM
"COC1COCCC1N[C@@H]1C[C@H]2OC(c3ccnn3C)C[C@@]2(C(=O)N2CCc3ncc(C(F)(F)F)cc3C2)C1 (stereo partly drawn) [Example 17, ((3aS,5S,6aR)-5-((3-methoxytetrahydro-2H-pyran-4-yl)amino)-2-(1-methyl-1H-pyrazol-5-yl)hexahydro-2H-cyclopenta[b]furan-3a-yl)(3-(trifluoromethyl)-7,8-dihydro-1,6-naphthyridin-6(5H)-yl)methanone]",IC50,[2],100 to 200 nM
"COC1COCCC1N[C@@H]1C[C@H]2OC(c3nccn3C)C[C@@]2(C(=O)N2CCc3ncc(C(F)(F)F)cc3C2)C1 (stereo partly drawn) [Example 18, ((3 aS,5S,6aR)-5-((3-methoxytetrahydro-2H-pyran-4-yl)amino)-2-(1-methyl-1H-imidazol-2-yl)hexahydro-2H-cyclopenta[b]furan-3a-yl)(3-(trifluoromethyl)-7,8-dihydro-1,6-naphthyridin-6(5H)-yl)methanone]",IC50,[2],> 200 nM
